The text below walks through data of patent US20220080027A1, “METHODS OF TREATING NEURODEGENERATIVE DISEASES BY TARGETING THE PURINERGIC AND/OR ADENOSINE RECEPTORS” (Board of Regents, The University of Texas System, priority 2020, published 2022).

“Also recorded” adds a separate entry of the source.

Assay [1] has as its target T1, Panx-1 channels (Homo sapiens, UniProt Q96RD7).
T1 construct: PBMCs isolated from uninfected individuals maintain the pannexin-1 channels in a closed stage; endogenous in cells; host or cells: freshly isolated human PBMCs (uninfected or HIV-infected donors)
Briefly: Ethidium (Etd) dye uptake, PBMCs from HIV-infected individuals. It counts as cell-based. Particulars: for effect on spontaneous Panx-1 channel opening (Etd uptake): Prob 500 μM, 10Panx peptide 200 μM; for effect on pannexin-1 channel opening and Etd uptake: FIG. 1F legend: PROB 50 μM, CBX 50 μM, PEP 300 μM, n=60. As to the method:
(§1) Dye uptake and time-lapse microscopy. To characterize the functional state of Panx-1 channels, dye-uptake experiments using ethidium (Etd) bromide were performed (Cat #15585011, ThermoFisher, Grand Island, N.Y., USA). Cells were washed twice in HBSS and then exposed to Locke's solution (containing 154 mM NaCl, 5.4 mM KCl, 2.3 mM CaCl2, 5 mM HEPES, and pH 7.4) with 5 μM Etd and time-lapse microscopy were then performed. Phase-contrast and fluorescence microscopy with time-lapse imaging were used to record cell appearance and fluorescence-intensity changes in each condition. Fluorescence was recorded every 30 s. The NIH ImageJ program was used for off-line image analysis and fluorescence quantification. For data representation and calculation of Etd uptake slopes, the average of two independent background fluorescence (FB) (expressed as A.U.) was subtracted from mean fluorescent intensity (F1). Results of this calculation (F1-FB), for at least 20 cells, were averaged and plotted against time (expressed in minutes). Slopes were calculated using Microsoft Excel software and expressed as A.U./min. The microscope and camera settings remained the same in all experiments. Dead cells or cells with a damaged plasma membrane were identified during the time-lapse microscopy as a result of their nonspecific Etd uptake rate, determined by lack of time dependency and stability in dye uptake (not inhibited by channel blockers), and were not quantified.
(§2) However, the chronic effects of HIV infection on Panx-1 channel activity were unknown. To determine the status of the channel, Panx-1 channel opening was determined by Ethidium (Etd, 5 μM) uptake rate Ethidium only crosses the plasma membrane in healthy cells by passing through specific large channels, such as Connexin (Cx) and Pannexin (Panx) hemichannels, and its rate of intracellular accumulation is reflective of channel opening.
To assess the opening of the Panx-1 channels on PBMCs isolated from HIV-infected individuals, the inventors used a similar approach as described above. The inventors analyzed Panx-1 channel opening using dye uptake rate on PBMCs isolated from 60 different HIV-infected individuals, mostly with low to undetectable replication, as described in Table 1.

Assay [2] concerns PBMCs obtained from uninfected individuals. Kind of assay: ATP release by PBMCs from uninfected individuals (ATPlite). It counts as cell-based, human. Particulars: for effect on release of ATP in response to HIV-gp120: PBMCs from uninfected individuals, Prob 500 μM, 10Panx1 peptide 300 μM, TAK779 5 μM, AMD3100 5 μM; for induction of ATP secretion: treatment of uninfected PBMCs, 30 min. As to the method: (§3) ATP Assay. […] Luminescence was measured using a PerkinElmer EnVision Multilabel Plate Reader. […] To assure rigor in these determinations, some samples were submitted for blinded analysis of ATP levels using mass spectrometry (University of North Dakota, N. Dak.).
(§4) Uninfected and HIV-infected PBMCs were isolated as described above.

The test system is the same in assay [3]. Kind of assay: PGE2 release by PBMCs from uninfected individuals (ELISA). Particulars: for effect on release of PGE2 in response to HIV-gp120: PBMCs from uninfected individuals, Prob 500 μM, 10Panx1 peptide 300 μM, TAK779 5 μM, AMD3100 5 μM; for induction of PGE2 secretion: treatment of uninfected PBMCs, 30 min. It counts as cell-based, human. As to the method: (§5) Analysis of IL-1β and PGE2 release. Plasma/serum was collected, divided into aliquots, and stored at −80° C. There were no freeze-thaw cycles before analysis. Plasma/serum was analyzed for TNF-α, IL-1β (Quantikine ELISA kit; R and D Systems, Minneapolis Minn., USA) and PGE2 (Abcam, Cambridge, Mass., USA) by enzyme-linked immunosorbent assay (ELISA) according to the manufacturer's instructions.
as §4

The subject of assay [4] is PBMCs obtained from HIV-infected individuals. Briefly: Spontaneous ATP release by PBMCs from HIV-infected individuals. The conditions noted are these: no stimulation, Prob 500 μM, 10Panx1 peptide 300 μM. The class given is cell-based, human. As to the method: as §3, §4
The test system is the same in assay [5]. Kind of assay: Spontaneous PGE2 release by PBMCs from HIV-infected individuals. It counts as cell-based, human. The conditions noted are these: no stimulation, Prob 500 μM, 10Panx1 peptide 300 μM. As to the method:
as §5, §4

In assay [6] the target is T1, Panx-1 channels. Kind of assay: Ethidium (Etd) dye uptake, PBMCs from uninfected individuals. It counts as cell-based. The conditions noted are these: for effect on basal Etd uptake: PBMCs from uninfected individuals, Prob 500 μM, CBX 500 μM, 10Panx peptide 200 μM, FIG. 1C; for induction of Panx-1 channel opening: treatment of uninfected PBMCs, 30 min, gp120 1 μg/ml, TNF-α 10 ng/ml, IL-1β 10 U/ml, IFN-γ 10 ng/ml, LPS 1 μg/ml. As to the method: as §1, §2

Assay [7] relates to HIVADA infected PBMCs (lymphocytes and monocytes). Briefly: Transmigration of HIVADA infected PBMCs across the in vitro BBB model in response to CCL2. The conditions noted are these: added to the co-culture; oATP 100 μM, apyrase 100 units/ml; data not shown. It counts as cell-based, human. As to the method:
(§6) Blood-brain barrier (BBB) model: This in vitro BBB model consists of primary human BMVEC and primary human astrocytes in co-culture on opposite sides of a gelatin-coated, 3 μm pore-size tissue culture insert (Falcon, B D, Franklin Lakes, N.J.) as described by the inventors. Co-cultures were maintained for three days to enable contact between astrocyte endfeet with BMVEC on the opposite side of the model as described. After this, the BBB model was treated with different ATP concentrations (Cat #A1852, Sigma Chemical Co., St. Louis, Mo., USA), and BBB permeability was measured using BSA conjugated to Evans Blue, as described by the inventors.
(§7) PBMCs infected with the HIVADA were added to the top chamber of BBB co-cultures without CCL2 in the bottom chamber (HIV).

Assay [8] concerns BBB model (primary human BMVEC and primary human astrocytes). Briefly: BBB disruption after transmigration of HIVADA infected PBMCs. It counts as cell-based. As to the method:
as §6, §7

A further assay has as its system HIV. Briefly: HIV replication and viral entry. It counts as cell-based.
Another assay has as its system purinergic receptors. The conditions noted are these: in vivo mouse model [116]; cited from earlier work.
Assay [9] has as its target CD4 on PBMCs from uninfected individuals (human) (UniProt P01730). Briefly: cell-based or functional assay.
[10] abbreviates: added to the co-culture, oATP 100 μM, apyrase 100 units/ml, data not shown.

T1 sequence (Q96RD7 whole entry): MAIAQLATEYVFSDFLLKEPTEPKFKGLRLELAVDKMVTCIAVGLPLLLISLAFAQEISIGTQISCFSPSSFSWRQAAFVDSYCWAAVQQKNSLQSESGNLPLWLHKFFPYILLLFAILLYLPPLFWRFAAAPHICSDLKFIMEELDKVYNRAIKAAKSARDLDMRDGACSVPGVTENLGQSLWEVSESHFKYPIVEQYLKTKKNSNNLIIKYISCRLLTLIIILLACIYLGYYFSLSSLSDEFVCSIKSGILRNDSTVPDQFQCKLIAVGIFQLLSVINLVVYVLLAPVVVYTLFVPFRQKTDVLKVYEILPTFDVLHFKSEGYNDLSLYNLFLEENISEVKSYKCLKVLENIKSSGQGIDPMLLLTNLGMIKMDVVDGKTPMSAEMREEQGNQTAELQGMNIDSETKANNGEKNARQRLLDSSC

With `c1cc(CN2CCCNCCNCCCNCC2)ccc1CN1CCCNCCNCCCNCC1` [AMD3100], the “effect on spontaneous Panx-1 channel opening (Etd uptake)” value (“effect … (Etd uptake)” for short) on Panx-1 channels [1] was “did not prevent”. Besides, the “effect on release of ATP in response to HIV-gp120” value (“effect on release of ATP” for short) in assay [2] is “prevented the release”. Moreover, the “effect on release of PGE2 in response to HIV-gp120” value (shortened to “effect on release of PGE2”) in assay [3] was “prevented the release”. For the same molecule, the “effect on spontaneous release of ATP” value in [4] was “no significant effects”. In assay [5], the “effect on spontaneous release of PGE2” value is given as “no significant effects”.
Regarding `Cc1ccc(-c2ccc3c(c2)C=C(C(=O)Nc2ccc(C[N+](C)(C)C4CCOCC4)cc2)CCC3)cc1.[Cl-]` [TAK779], the “effect … (Etd uptake)” value at Panx-1 channels [1] is reported as “did not prevent”. Further, in assay [2], the “effect on release of ATP” value was “prevented the release”. In addition, the “effect on release of PGE2” value in assay [3] is on record as “prevented the release”. For the same molecule, the “effect on spontaneous release of ATP” value in assay [4] was “no significant effects”. Further, the “effect on spontaneous release of PGE2” value in assay [5] was “no significant effects”.
In the case of `CC1(C)[C@@H](OC(=O)CCC(=O)O)CC[C@]2(C)[C@H]3C(=O)C=C4[C@@H]5C[C@@](C)(C(=O)O)CC[C@]5(C)CC[C@@]4(C)[C@]3(C)CC[C@@H]12` [carbenoxolone], the “effect on basal Etd uptake” value on Panx-1 channels [6] is “did not affect”. Further, the “effect on pannexin-1 channel opening and Etd uptake” value at Panx-1 channels [1] was “able to prevent the opening of the pannexin-1 channel and Etd uptake”.
In the case of `[La]` [lanthanum], the “effect on basal Etd uptake” value at Panx-1 channels [6] was “did not have any effect”. The “effect … (Etd uptake)” value at Panx-1 channels [1] was “did not affect”. The “effect on release of ATP” value in assay [2] was “did not alter”; in assay [2] (listed as Lanthanum) it was “did not affect”. Further, the “effect on release of PGE2” value in assay [3] was “did not alter”; in [3] (listed as Lanthanum) it was “did not affect”. In addition, the “effect on spontaneous release of ATP” value is “did not alter” in assay [4] and “did not affect” in assay [4] (listed as Lanthanum). In addition, the “effect on spontaneous release of PGE2” value is listed as “did not alter” in assay [5] and “did not affect” in assay [5] (listed as Lanthanum).
On to `Nc1ncnc2c1ncn2[C@@H](C=O)O[C@@H](C=O)COP(=O)(O)OP(=O)(O)OP(=O)(O)O` [oATP], for which the effect on transmigration result in assay [7] is reported as “blocked”. Also, the “effect on BBB disruption” value in assay [8] (setting [10]) is reported as “blocked”. Further, the “inhibition of HIV replication and viral entry” value in the assay on HIV is given as “potent inhibitor”. In the assay on purinergic receptors, the “onset of diabetes and inflammatory bowel disease” value is “can prevent the onset of diabetes and inflammatory bowel disease”; the “systemic blocking of purinergic receptors” value is recorded as “good systemic blocker of purinergic receptors”.
With `CCCN(CCC)S(=O)(=O)c1ccc(C(=O)O)cc1` [probenecid], at Panx-1 channels [6], the “effect on basal Etd uptake” value is reported as “did not affect”. Also, the “effect on pannexin-1 channel opening and Etd uptake” value at Panx-1 channels [1] is “able to prevent the opening of the pannexin-1 channel and Etd uptake”. Also, the “effect on release of ATP” value in assay [2] is “prevented the release”. The “effect on release of PGE2” value in assay [3] is “prevented the release”. The “effect on spontaneous release of ATP” value in assay [4] was “prevented the release”. Besides, the “effect on spontaneous release of PGE2” value in [5] is “prevented the release”. Besides, the “effect on BBB disruption” value in assay [8] (HIVADA infected PBMCs preincubated with blocker, CCL2) was “reduced BBB disruption”.
As to “IL-1p: cytokine used to treat uninfected PBMCs”, the “induction of Panx-1 channel opening” value with Panx-1 channels [6] is given as “does not induce”. In assay [2], the “induction of ATP secretion” value was “does not induce”. In addition, in assay [3], the “induction of PGE2 secretion” value is “does not induce”.
With TNF-α, the “induction of Panx-1 channel opening” value at Panx-1 channels [6] was “does not induce”. In assay [2], the “induction of ATP secretion” value is given as “does not induce”. For the same molecule, the “induction of PGE2 secretion” value in assay [3] was “does not induce”.
For apyrase, the effect on transmigration entry in [7] is listed as “blocked”. For the same molecule, the “effect on BBB disruption” value in assay [8] (setting [10]) is recorded as “blocked”.
In assay [9], “recombinant protein HIV-gp120 (HIV-Bal) (ligand)” came in with a release of ATP after 30 min (uninfected PBMCs, gp120 1 µg/ml) of 5.9 µM and a release of PGE2 after 30 min (uninfected PBMCs, gp120 1 µg/ml) of 56.8 pg/mL.

B1: Cx43^E2: a peptide that specifically blocks Cx43 hemichannels (peptide)
VH: EVQLQQPGAELVKPGASVKLSCKASGYTFTSYYMYWVKQRPGQGLEWIGGINPSNGGTNFNEKFKNKATLTVDKSSSTAYMQLSSLTSEDSAVYYCTREGNPYYTMNYWGQGTSVTVSS
VL: DIVMTQSPSSLSVSAGEKVTMSCKSSQSLLNSGNQKTYLAWYQQKPGQPPKLLIYGASTRESGVPDRFTGSGSGTDFTLTISSVQAEDLAVYYCQNDHSYPFTFGSGTKLEIK
Consider B1, for which the “effect on basal Etd uptake” value with Panx-1 channels [6] is recorded as “did not have any effect”. The “effect … (Etd uptake)” value in the assay with Panx-1 channels [1] is “did not affect”. Also, the “effect on release of ATP” value in [2] is listed as “did not alter; also recorded: did not affect”. Besides, in assay [3], the “effect on release of PGE2” value is on record as “did not alter; also recorded: did not affect”. For the same molecule, in [4], the “effect on spontaneous release of ATP” value was “did not alter; also recorded: did not affect”. For the same molecule, the “effect on spontaneous release of PGE2” value in [5] is reported as “did not alter; also recorded: did not affect”.

B2: IFN-γ: cytokine used to treat uninfected PBMCs (protein, UniProt P01579 24-161, looked up)
Interferon gamma: QDPYVKEAENLKKYFNAGHSDVADNGTLFLGILKNWKEESDRKIMQSQIVSFYFKLFKNFKDDQSIQKSVETIKEDMNVKFFNSNKKKRDDFEKLTNYSVTDLNVQRKAIHELIQVMAELSPAAKTGKRKRSQMLFRG
As for B2, the “induction of Panx-1 channel opening” value in the assay with Panx-1 channels [6] is “does not induce”. Moreover, the “induction of ATP secretion” value in [2] is “does not induce”. Further, the “induction of PGE2 secretion” value in [3] is “does not induce”.
